Test results taken from patent US6069143A, “Fibrinogen receptor antagonists” (SmithKline Beecham Corporation, priority 1996, dated 2000).

Biological target: T1, fibrinogen receptor (GPIIb-IIIa) (Homo sapiens, UniProt P05106+P08514)
T1 construct: Ten units of outdated, washed human platelets (obtained from Red Cross) were lyzed; from tissue; host or cells: outdated human platelets (Red Cross); GPIIb-IIIa purified on lentil lectin sepharose and incorporated in liposomes
Test: Competitive binding to GPIIb-IIIa ([3H]-SK&F-107260 displacement, GPIIb-IIIa liposomes)
Settings: purified human platelet GPIIb-IIIa in liposomes; 4.5 nM [3H]-SK&F-107260; Ki from IC50 by Cheng and Prusoff equation; read-out: Ki, inhibition of [3H]-SK&F 107260 binding
Experimental: Ten units of outdated, washed human platelets (obtained from Red Cross) were lyzed by gentle stirring in 3% octylglucoside, 20 mM Tris-HCl, pH 7.4, 140 mM NaCl, 2 mM CaCl2 at 4° C. for 2 h. The lysate was centrifuged at 100,000 g for 1 h. The supernatant obtained was applied to a 5 mL lentil lectin sepharose 4B column (E.Y. Labs) preequilibrated with 20 mM Tris-HCl, pH 7.4, 100 mM NaCl, 2 mM CaCl2, 1% octylglucoside (buffer A). After 2 h incubation, the column was washed with 50 mL cold buffer A. The lectin-retained GPIIb-IIIa was eluted with buffer A containing 10% dextrose. All procedures were performed at 4° C. The GPIIb-IIIa obtained was >95% pure as shown by SDS polyacrylamide gel electrophoresis. […]
The binding to the fibrinogen receptor (GPIIb-IIIa) was assayed by an indirect competitive binding method using [^3 H]-SK&F-107260 as an RGD-type ligand. […] Bound radioactivity remaining on the filters was counted in 1.5 mL Ready Solve (Beckman Instruments, Fullerton, Calif.) in a Beckman Liquid Scintillation Counter (Model LS6800), with 40% efficiency. Nonspecific binding was determined in the presence of 2 μg unlabeled SK&F-107260 and was consistently less than 0.14% of the total radioactivity added to the samples. […]
Competition binding data were analyzed by a nonlinear least-squares curve fitting procedure. […]

T1 sequence (P08514 32-887 limits assumed): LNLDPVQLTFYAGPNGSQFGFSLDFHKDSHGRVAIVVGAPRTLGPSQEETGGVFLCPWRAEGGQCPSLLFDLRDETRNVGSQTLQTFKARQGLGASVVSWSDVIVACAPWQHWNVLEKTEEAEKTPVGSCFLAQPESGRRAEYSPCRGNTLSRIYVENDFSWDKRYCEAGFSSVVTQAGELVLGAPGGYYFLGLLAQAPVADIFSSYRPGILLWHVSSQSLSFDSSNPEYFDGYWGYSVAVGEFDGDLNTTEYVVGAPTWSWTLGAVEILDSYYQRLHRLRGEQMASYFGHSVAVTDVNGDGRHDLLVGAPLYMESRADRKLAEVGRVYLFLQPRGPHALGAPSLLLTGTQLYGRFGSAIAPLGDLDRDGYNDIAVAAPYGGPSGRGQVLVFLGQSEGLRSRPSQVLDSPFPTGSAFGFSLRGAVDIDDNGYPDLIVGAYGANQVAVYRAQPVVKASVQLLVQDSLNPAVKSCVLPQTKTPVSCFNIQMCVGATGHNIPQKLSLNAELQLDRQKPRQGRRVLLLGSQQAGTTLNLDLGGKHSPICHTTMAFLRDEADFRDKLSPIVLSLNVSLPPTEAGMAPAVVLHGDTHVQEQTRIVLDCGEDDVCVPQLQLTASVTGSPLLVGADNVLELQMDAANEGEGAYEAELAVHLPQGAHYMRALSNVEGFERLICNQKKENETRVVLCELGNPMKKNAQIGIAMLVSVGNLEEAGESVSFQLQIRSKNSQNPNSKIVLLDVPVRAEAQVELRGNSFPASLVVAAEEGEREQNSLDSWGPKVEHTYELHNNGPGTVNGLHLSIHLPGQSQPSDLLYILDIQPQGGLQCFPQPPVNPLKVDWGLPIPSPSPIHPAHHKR
T1 sequence (P08514 891-1039 limits assumed): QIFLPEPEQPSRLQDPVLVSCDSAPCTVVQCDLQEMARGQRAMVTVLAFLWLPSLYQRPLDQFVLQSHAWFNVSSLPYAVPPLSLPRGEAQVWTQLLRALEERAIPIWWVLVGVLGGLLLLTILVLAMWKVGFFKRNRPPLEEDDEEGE
T1 sequence (P05106 27-788): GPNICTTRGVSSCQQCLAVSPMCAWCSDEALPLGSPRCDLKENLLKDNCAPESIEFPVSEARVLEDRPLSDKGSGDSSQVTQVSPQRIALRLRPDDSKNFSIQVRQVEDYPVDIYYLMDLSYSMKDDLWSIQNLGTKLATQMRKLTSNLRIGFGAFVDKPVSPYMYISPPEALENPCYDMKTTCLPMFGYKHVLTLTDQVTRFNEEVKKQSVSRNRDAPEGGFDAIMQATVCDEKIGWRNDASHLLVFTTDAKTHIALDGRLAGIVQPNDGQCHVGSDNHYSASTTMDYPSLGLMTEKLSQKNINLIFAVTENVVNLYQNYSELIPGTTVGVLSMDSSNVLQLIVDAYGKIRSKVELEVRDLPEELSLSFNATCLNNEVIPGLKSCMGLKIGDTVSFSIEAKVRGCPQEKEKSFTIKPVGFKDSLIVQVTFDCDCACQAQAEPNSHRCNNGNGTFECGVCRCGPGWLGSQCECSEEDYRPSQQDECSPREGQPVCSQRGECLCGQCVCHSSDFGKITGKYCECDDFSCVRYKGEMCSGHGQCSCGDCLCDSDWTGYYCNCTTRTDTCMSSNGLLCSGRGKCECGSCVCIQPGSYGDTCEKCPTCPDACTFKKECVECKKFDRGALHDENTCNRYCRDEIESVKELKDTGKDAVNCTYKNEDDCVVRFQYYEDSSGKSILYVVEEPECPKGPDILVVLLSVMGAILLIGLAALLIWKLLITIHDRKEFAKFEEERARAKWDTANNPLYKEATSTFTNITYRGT

- Ki: ~5 nM
SMILES: O=C(O)CN1CCC(C(=O)Nc2ccc(N3CCNCC3)cc2)CC1 [Example 1, 4-[[[4-(1-piperazinyl)phenyl]amino]carbonyl]-1-piperidineacetic acid]
